Each block holds one compound with its values, some of them ahead of it.
What was measured:
Type in all cases: physicochemical
[1] = Stability with regard to steam autoclaving: viscosity of non-crosslinked hyaluronic acid compositions (rheometer)
Method: For the compositions according to the invention comprising non-crosslinked hyaluronic acid, the viscosity η of the sterilized compositions after the steam autoclaving step is characterized on a TA Instruments AR 2000 Ex rheometer, under controlled constraint conditions, at 25° C. The viscosity value is recorded at a constraint of 0.02 s^−1.
(§1) For the compositions comprising non-crosslinked hyaluronic acid, the percentage of loss in the viscosity is the value of the difference in the viscosity of the reference composition after steam autoclaving and the viscosity of the composition comprising non-crosslinked hyaluronic acid and a sulphated oligo-polysaccharide or a sulphated monosaccharide after steam autoclaving over the value of the viscosity of the reference composition after steam autoclaving.
(§2) For these all measurements, a reference composition is formulated, the aqueous solution of sulphated oligo-polysaccharide or of sulphated monosaccharide being replaced by the same amount of aqueous solution of phosphate buffer.
Nine compositions comprising non-crosslinked hyaluronic acid and a sulphated oligo-polysaccharide or a sulphated monosaccharide at a concentration of 1 mg/g in the composition are prepared according to the procedure described in Example 1.
A reference composition is also formulated, the aqueous solution of sulphated oligo-polysaccharide or of sulphated monosaccharide being replaced by the same amount of aqueous solution of phosphate buffer.
A series of five compositions comprising non-crosslinked hyaluronic acid, mannitol and a sulphated oligo-polysaccharide or a sulphated monosaccharide at a concentration of 1 mg/g in the composition is prepared according to the procedure described in Example 3.
Examples of tests on formulations of KSOS (at different concentrations) with a non-crosslinked gel of Example 1 at the concentrations and ratios described in Table 7 below.
The gels are sterilized and then characterized by rheology according to Example 8.

[2] = Stability with regard to steam autoclaving: elastic component G′ of crosslinked hyaluronic acid compositions (rheometer)
Method: For the compositions according to the invention comprising crosslinked hyaluronic acid, the elastic component G′ of the sterilized compositions after the autoclaving step is characterized on a TA Instruments AR 2000 Ex rheometer, under oscillation conditions, at 25° C., the values of the elastic component being recorded at a frequency of 1 Hz.
as §1, with “crosslinked” for “non-crosslinked”, “elastic component G′” for “viscosity”
as §2
A series of four compositions comprising crosslinked hyaluronic acid, mannitol and a sulphated oligo-polysaccharide or a sulphated monosaccharide at a concentration of 1 mg/g in the composition is prepared according to the procedure described in Example 4.
A reference composition is also formulated, the aqueous solution of sulphated oligo-polysaccharide or of sulphated monosaccharide being replaced by an equivalent amount of aqueous solution of phosphate buffer.
Examples of tests on formulations of KSOS (at different concentrations) with a 20 mg/g crosslinked NaHA gel (IPN-like gel, sold under the Stylage® M brand), which is the reference gel.
The gels are sterilized and then characterized.
The percentage of loss in the elastic component G′ with respect to the reference composition is measured according to Example 8 and the difference between the injectability force, through 30-gauge ½ hypodermic needles, of the reference gel and of the gels comprising potassium sucrose octasulphate is measured.
Example of test on formulation of KSOS with a gel comprising crosslinked hyaluronic acid at the concentration and at the ratio described in Table 8 below.
The gels are prepared according to the procedure described in Example 2 and are then characterized by rheology according to Example 8.

[3] = Solubility of salts of sucrose octasulphate
[4] = after steam autoclaving, non-crosslinked hyaluronic acid + mannitol + sulphated saccharide at 1 mg/g (procedure of Example 3)
[5] = after steam autoclaving, non-crosslinked hyaluronic acid + sulphated saccharide at 1 mg/g (procedure of Example 1), viscosity at 25° C., 0.02 s^−1
[6] = after steam autoclaving, crosslinked hyaluronic acid + mannitol + sulphated saccharide at 1 mg/g (procedure of Example 4), 25° C., 1 Hz

Compound: O=S(=O)(O)N[C@H]1C(O)O[C@H](CO)[C@@H](O)[C@@H]1O (stereo partly drawn) [D-Glucosamine-2-sulphate, reference compound]
% of loss in the viscosity with respect to the reference composition [1, 4]: 25%
% of loss in the viscosity with respect to the reference composition [1, 5]: 87%
% of loss in the elastic component G′ with respect to the reference composition [2, 6]: 18%

Compound: CC(=O)N[C@H]1C(O)O[C@H](COS(=O)(=O)O)[C@@H](O)[C@@H]1O (stereo partly drawn) [N-Acetyl-D-glucosamine-6-sulphate, reference compound]
% of loss in the viscosity with respect to the reference composition [1, 4]: 60%
% of loss in the viscosity with respect to the reference composition [1, 5]: 96%
% of loss in the elastic component G′ with respect to the reference composition [2, 6]: 32%

Compound: N[C@H]1C(O)O[C@H](COS(=O)(=O)O)[C@@H](O)[C@@H]1O (stereo partly drawn) [D-Glucosamine-6-sulphate, reference compound]
% of loss in the viscosity with respect to the reference composition [1, 4]: 90%
% of loss in the viscosity with respect to the reference composition [1, 5]: 98%
% of loss in the elastic component G′ with respect to the reference composition [2, 6]: 74%

Compound: O=S(=O)([O-])OC[C@H]1O[C@@](COS(=O)(=O)[O-])(O[C@H]2O[C@H](COS(=O)(=O)[O-])[C@@H](OS(=O)(=O)[O-])[C@H](OS(=O)(=O)[O-])[C@H]2OS(=O)(=O)[O-])[C@@H](OS(=O)(=O)[O-])[C@@H]1OS(=O)(=O)[O-].[Na+].[Na+].[Na+].[Na+].[Na+].[Na+].[Na+].[Na+] [Sodium sucrose octasulphate]
% of loss in the viscosity with respect to the reference composition [1, 4]: 0%
% of loss in the viscosity with respect to the reference composition [1, 5]: 0%
solubility compared with the potassium salt [3]: greater than that of the potassium salt

Compound: Potassium sucrose octasulphate
% of loss in the viscosity with respect to the reference composition ([1]; after autoclaving, non-crosslinked NaHA 4 mg/g, KSOS 40 mg/g, [HA]/[SOS] 0.1): 0%
% of loss in the viscosity with respect to the reference composition ([1]; after autoclaving, non-crosslinked NaHA 10 mg/g, KSOS 10 mg/g, [HA]/[SOS] 1): 0%
% of loss in the viscosity with respect to the reference composition ([1]; after autoclaving, non-crosslinked NaHA 10 mg/g, KSOS 20 mg/g, [HA]/[SOS] 0.5): 0%
% of loss in the viscosity with respect to the reference composition ([1]; after autoclaving, non-crosslinked NaHA 20 mg/g, KSOS 10 mg/g, [HA]/[SOS] 2): 0%
% of loss in the viscosity with respect to the reference composition ([1]; after autoclaving, non-crosslinked NaHA 20 mg/g, KSOS 20 mg/g, [HA]/[SOS] 1): 0%
% of loss in the viscosity with respect to the reference composition ([1]; after autoclaving, non-crosslinked NaHA 25 mg/g, KSOS 0.01 mg/g, [HA]/[SOS] 2500): 0%
% of loss in the viscosity with respect to the reference composition ([1]; after autoclaving, non-crosslinked NaHA 25 mg/g, KSOS 0.05 mg/g, [HA]/[SOS] 500): 0%
% of loss in the viscosity with respect to the reference composition [1, 4]: 0%
% of loss in the viscosity with respect to the reference composition [1, 5]: 0%
% of loss in the elastic component G′ with respect to the reference composition ([2]; after autoclaving, crosslinked NaHA 10.3 mg/g, KSOS 25 mg/g, [HA]/[SOS] 0.4 (procedure of Example 2)): 0%
% of loss in the elastic component G′ with respect to the reference composition [2, 6]: 0%
% of loss in the elastic component G′ with respect to the reference composition ([2]; after steam autoclaving, crosslinked hyaluronic acid + mannitol + sulphated saccharide at 1 mg/g (procedure of Example 4), 25° C., 1 Hz, listed as potassium sucrose octasulphate): no loss
maximum solubility [3]: 40 mg/g

Second part, the compound after the results:

% of loss in the viscosity with respect to the reference composition [1, 5]: 62%
Compound: Chondroitin sulphate [reference compound]

% of loss in the viscosity with respect to the reference composition [1, 5]: 16%
Compound: Dextran sulphate(40000) [reference compound]

% of loss in the viscosity with respect to the reference composition [1, 5]: 92%
Compound: Hexasulphated carrageenan(hexasaccharide) [reference compound]

% of loss in the viscosity with respect to the reference composition [1, 5]: 94%
Compound: Disulphated carrageenan(disaccharide) [reference compound]

From patent US9314530B2, “Composition, in aqueous medium, that comprises at least a hyaluronic acid and at least an hydrosoluble salt of sucrose octasulfate” (LABORATOIRES VIVACY, priority 2012, dated 2016)
